This note sets out measurements from ChEMBL document CHEMBL2203077, “Discovery of a novel series of 4-quinolone JNK inhibitors” (Bioorg Med Chem Lett, 2012).

The target in data set [1] is T1, Mitogen-activated protein kinase 8 (Homo sapiens, UniProt P45983). Nature of the data set: Inhibition of human JNK1 alpha1 using GST-tagged ATF2 as substrate and [gamma33P]ATP incubated for 10 mins prior to substrate addition measured after 30 mins by scintillation counting.
In data set [2] the target is T2, Mitogen-activated protein kinase 9 (Homo sapiens, UniProt P45984). Nature of the data set: Inhibition of human JNK2 alpha2 using GST-tagged ATF2 as substrate and [gamma33P]ATP incubated for 10 mins prior to substrate addition measured after 30 mins by scintillation counting.
Data set [3] in a line: Solubility of the compound in phosphate buffer at pH 6.4. It counts as physicochemical.
The next data set deals with Caco-2. Kind of data set: Efflux ratio of permeability from apical to basal to basal to apical side of human Caco2 cells. It counts as ADME, cell-based. For orientation: Caco-2 cells form a polarised layer with tight junctions and transporters.
Data set [4] has as its target c-Jun N-terminal kinase, JNK (Homo sapiens, UniProt P45983+P53779+P45984). Kind of data set: Inhibition of JNK in human SW1353 assessed as inhibition of TNFalpha-inuced c-Jun phosphorylation incubated for 30 mins prior to TNFalpha-induction measured after 20 mins by immunostaining method.
Data set [5] has as its target Mitogen-activated protein kinase 15 (Homo sapiens, UniProt Q8TD08). Kind of data set: Binding affinity to T7-phage-tagged MAPK15 by PCR analysis.
The test system of data set [6] is Rattus norvegicus. Kind of data set: Antiasthatic activity in ovalbumin-sensitized Brown Norway rat assessed as inhibition of ovalbumin-induced neutrophil infiltration into BAL at 10 mg/kg, sc administered 24 hrs prior to ovalbumin-challenge measured after 4 hrs relative to vehicle-treated control. It counts as functional. Conditions: route subcutaneous.
Data set [7] can be described thus: Oral bioavailability in dog at 3 mg/kg administered using hydroxypropyl methylcellulose as vehicle. The data set is classed as ADME, organism-based, Canis lupus familiaris. As to conditions: in vivo.
Data set [8] in a line: Half life in dog at 3 mg/kg, iv. The data set is classed as ADME, organism-based, Canis lupus familiaris. More on the design: dose 3 mg/kg, route intravenous. Conditions: in vivo.
Data set [9] has as its target Serine/threonine-protein kinase 17A (Homo sapiens, UniProt Q9UEE5). Nature of the data set: Binding affinity to T7-phage-tagged STK17A by PCR analysis.
Data set [10] deals with Inhibitor of nuclear factor kappa-B kinase subunit beta (Homo sapiens, UniProt O14920). Kind of data set: Binding affinity to T7-phage-tagged IKKbeta by PCR analysis.
Data set [11] concerns the target Dual specificity mitogen-activated protein kinase kinase 4 (Homo sapiens, UniProt P45985). Kind of data set: Binding affinity to T7-phage-tagged MAP2K4 by PCR analysis.
Data set [12] has as its target Death-associated protein kinase 2 (Homo sapiens, UniProt Q9UIK4). Nature of the data set: Binding affinity to T7-phage-tagged DAPK2 by PCR analysis.
Data set [13] addresses Cyclin-dependent kinase 7 (Homo sapiens, UniProt P50613). Nature of the data set: Binding affinity to T7-phage-tagged CDK7 by PCR analysis.
Data set [14] is described as follows: Oral bioavailability in rat at 3 mg/kg administered using hydroxypropyl methylcellulose as vehicle. As to conditions: in vivo. It counts as ADME, organism-based.
In data set [15] the target is Serine/threonine-protein kinase DCLK3 (Homo sapiens, UniProt Q9C098). Kind of data set: Binding affinity to T7-phage-tagged DCAMKL3 by PCR analysis.
The target of data set [16] is Death-associated protein kinase 3 (Homo sapiens, UniProt O43293). Kind of data set: Binding affinity to T7-phage-tagged DAPK3 by PCR analysis.
Data set [17] addresses Mitogen-activated protein kinase 13 (Homo sapiens, UniProt O15264). Kind of data set: Binding affinity to T7-phage-tagged P38delta by PCR analysis.
Data set [18] has as its target T1, Mitogen-activated protein kinase 8. Nature of the data set: Binding affinity to T7-phage-tagged JNK1 by PCR analysis.
The subject of data set [19] is Rattus norvegicus. Nature of the data set: Antiasthatic activity in ovalbumin-sensitized Brown Norway rat assessed as inhibition of ovalbumin-induced total white blood cells infiltration into BAL at 10 mg/kg, sc administered 24 hrs prior to ovalbumin-challenge measured after 4 hrs relative to vehicle-treated control. The data set is classed as functional. As to conditions: route subcutaneous.

For data set [20], the target named is Serine/threonine-protein kinase RIO2 (Homo sapiens, UniProt Q9BVS4). Kind of data set: Binding affinity to T7-phage-tagged RIOK2 by PCR analysis.
Data set [21] concerns the target Ribosomal protein S6 kinase alpha-1 (Homo sapiens, UniProt Q15418). Kind of data set: Binding affinity to T7-phage-tagged RPS6KA1 by PCR analysis.
For data set [22], the target named is Interleukin-1 receptor-associated kinase 1 (Homo sapiens, UniProt P51617). Nature of the data set: Binding affinity to T7-phage-tagged IRAK1 by PCR analysis.
Data set [23] deals with Mitogen-activated protein kinase 7 (Homo sapiens, UniProt Q13164). Kind of data set: Binding affinity to T7-phage-tagged MAPK7 by PCR analysis.
Data set [24] concerns the target Mitogen-activated protein kinase 12 (Homo sapiens, UniProt P53778). Kind of data set: Binding affinity to T7-phage-tagged P38gamma by PCR analysis.
The nature of data set [25]: Half life in rat at 3 mg/kg, iv. Also noted: dose 3 mg/kg, route intravenous. The data set is classed as ADME, organism-based. Conditions: in vivo.
For data set [26], the target named is Myosin light chain kinase family member 4 (Homo sapiens, UniProt Q86YV6). Nature of the data set: Binding affinity to T7-phage-tagged SgK085 by PCR analysis.
The nature of data set [27]: Clearance in dog at 3 mg/kg, iv. It counts as ADME, organism-based, Canis lupus familiaris. Also noted: dose 3 mg/kg, route intravenous. Conditions: in vivo.
Data set [28] can be described thus: Clearance in rat at 3 mg/kg, iv. It counts as ADME, organism-based. More on the design: dose 3 mg/kg, route intravenous. Conditions: in vivo.
A short description of data set [29]: Oral bioavailability in rat at 3 mg/kg administered using labrasol as vehicle. As to conditions: in vivo. The data set is classed as ADME, organism-based.
Data set [30] can be described thus: […] bioavailability in ip dosed rat. Conditions: in vivo, intraperitoneal. The data set is classed as ADME, organism-based.
Data set [31] concerns the target Death-associated protein kinase 1 (Homo sapiens, UniProt P53355). Nature of the data set: Binding affinity to T7-phage-tagged DAPK1 by PCR analysis.
In data set [32] the target is T2, Mitogen-activated protein kinase 9. Nature of the data set: Binding affinity to T7-phage-tagged JNK2 by PCR analysis.

≈ marks a conversion by molar mass, not a printed value.

T2 sequence (P45984 whole entry): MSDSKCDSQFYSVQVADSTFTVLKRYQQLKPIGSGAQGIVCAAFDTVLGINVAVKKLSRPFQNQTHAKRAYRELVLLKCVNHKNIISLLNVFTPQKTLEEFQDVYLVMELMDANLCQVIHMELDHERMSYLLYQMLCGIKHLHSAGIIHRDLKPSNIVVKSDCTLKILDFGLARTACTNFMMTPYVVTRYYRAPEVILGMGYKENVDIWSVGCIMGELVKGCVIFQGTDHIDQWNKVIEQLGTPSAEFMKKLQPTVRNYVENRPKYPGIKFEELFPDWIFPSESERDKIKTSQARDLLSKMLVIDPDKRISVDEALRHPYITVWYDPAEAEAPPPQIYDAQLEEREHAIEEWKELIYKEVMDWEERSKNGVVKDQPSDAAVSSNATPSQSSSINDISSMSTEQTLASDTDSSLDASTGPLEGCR
T1 sequence (P45983 whole entry): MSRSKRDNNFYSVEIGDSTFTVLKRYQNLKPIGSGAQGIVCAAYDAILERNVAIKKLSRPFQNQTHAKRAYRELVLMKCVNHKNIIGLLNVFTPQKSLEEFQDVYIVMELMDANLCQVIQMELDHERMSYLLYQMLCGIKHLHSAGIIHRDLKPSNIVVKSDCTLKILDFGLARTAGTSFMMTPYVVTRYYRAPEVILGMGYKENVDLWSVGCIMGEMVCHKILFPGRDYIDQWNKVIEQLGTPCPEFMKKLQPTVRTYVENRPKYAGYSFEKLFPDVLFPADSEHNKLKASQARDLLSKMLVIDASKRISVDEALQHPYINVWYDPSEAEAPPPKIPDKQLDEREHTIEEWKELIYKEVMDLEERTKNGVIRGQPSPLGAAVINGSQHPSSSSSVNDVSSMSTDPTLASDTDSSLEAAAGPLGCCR
Mitogen-activated protein kinase 12, sequence (P53778 whole entry): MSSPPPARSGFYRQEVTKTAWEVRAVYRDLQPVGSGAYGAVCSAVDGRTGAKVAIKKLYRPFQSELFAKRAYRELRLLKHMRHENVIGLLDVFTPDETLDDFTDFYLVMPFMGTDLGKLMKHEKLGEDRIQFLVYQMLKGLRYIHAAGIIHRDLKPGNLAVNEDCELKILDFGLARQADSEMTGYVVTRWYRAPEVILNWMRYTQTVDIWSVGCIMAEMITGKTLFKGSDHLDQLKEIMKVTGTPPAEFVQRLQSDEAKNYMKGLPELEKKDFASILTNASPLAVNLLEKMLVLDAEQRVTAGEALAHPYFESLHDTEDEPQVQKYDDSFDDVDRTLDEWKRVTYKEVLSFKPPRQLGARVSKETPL
Mitogen-activated protein kinase 13, sequence (O15264 whole entry): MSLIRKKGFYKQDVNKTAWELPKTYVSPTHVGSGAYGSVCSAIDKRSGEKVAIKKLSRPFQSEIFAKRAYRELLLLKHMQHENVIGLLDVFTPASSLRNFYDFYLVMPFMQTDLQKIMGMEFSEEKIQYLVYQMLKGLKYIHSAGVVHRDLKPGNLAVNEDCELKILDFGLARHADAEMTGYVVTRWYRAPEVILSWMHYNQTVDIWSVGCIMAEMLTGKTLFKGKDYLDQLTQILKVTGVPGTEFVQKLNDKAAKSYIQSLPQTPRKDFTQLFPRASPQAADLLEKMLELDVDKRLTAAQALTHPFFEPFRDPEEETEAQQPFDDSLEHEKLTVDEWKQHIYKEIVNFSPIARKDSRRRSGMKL
Death-associated protein kinase 1, sequence (P53355 whole entry): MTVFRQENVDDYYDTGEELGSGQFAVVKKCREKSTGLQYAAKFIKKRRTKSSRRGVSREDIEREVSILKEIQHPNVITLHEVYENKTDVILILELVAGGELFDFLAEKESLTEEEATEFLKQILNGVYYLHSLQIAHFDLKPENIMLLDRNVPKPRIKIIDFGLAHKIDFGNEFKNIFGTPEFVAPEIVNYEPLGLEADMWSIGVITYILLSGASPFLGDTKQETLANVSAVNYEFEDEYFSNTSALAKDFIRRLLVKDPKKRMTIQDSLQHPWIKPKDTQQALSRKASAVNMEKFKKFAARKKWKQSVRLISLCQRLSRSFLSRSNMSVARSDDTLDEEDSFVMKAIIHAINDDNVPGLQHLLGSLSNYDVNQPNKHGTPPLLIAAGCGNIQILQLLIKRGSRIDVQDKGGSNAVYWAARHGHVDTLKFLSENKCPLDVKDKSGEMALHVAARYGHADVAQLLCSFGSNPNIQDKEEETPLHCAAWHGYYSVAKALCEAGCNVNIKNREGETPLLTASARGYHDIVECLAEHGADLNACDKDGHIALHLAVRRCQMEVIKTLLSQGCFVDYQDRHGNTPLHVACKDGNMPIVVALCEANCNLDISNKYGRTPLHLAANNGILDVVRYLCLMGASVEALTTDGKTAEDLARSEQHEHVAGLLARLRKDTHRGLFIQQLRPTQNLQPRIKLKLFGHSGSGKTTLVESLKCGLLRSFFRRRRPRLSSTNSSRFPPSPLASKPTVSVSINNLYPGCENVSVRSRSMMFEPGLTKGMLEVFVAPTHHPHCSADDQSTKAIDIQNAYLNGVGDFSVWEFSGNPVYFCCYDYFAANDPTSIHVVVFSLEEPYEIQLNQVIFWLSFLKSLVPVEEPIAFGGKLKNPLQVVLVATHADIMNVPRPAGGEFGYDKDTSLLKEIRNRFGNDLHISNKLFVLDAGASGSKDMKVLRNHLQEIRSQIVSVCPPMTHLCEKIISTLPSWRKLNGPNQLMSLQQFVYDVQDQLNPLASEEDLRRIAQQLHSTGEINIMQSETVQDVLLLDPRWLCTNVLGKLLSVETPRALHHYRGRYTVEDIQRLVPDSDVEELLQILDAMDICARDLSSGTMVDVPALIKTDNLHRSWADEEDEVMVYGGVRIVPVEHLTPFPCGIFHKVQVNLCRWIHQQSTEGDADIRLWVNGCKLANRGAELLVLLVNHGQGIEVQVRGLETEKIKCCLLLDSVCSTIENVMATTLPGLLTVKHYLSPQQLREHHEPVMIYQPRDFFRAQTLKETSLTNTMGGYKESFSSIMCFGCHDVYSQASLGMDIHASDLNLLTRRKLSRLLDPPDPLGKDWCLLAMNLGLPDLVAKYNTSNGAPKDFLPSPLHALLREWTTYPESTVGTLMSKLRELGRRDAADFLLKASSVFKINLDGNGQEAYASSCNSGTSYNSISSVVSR
Interleukin-1 receptor-associated kinase 1, sequence (P51617 whole entry): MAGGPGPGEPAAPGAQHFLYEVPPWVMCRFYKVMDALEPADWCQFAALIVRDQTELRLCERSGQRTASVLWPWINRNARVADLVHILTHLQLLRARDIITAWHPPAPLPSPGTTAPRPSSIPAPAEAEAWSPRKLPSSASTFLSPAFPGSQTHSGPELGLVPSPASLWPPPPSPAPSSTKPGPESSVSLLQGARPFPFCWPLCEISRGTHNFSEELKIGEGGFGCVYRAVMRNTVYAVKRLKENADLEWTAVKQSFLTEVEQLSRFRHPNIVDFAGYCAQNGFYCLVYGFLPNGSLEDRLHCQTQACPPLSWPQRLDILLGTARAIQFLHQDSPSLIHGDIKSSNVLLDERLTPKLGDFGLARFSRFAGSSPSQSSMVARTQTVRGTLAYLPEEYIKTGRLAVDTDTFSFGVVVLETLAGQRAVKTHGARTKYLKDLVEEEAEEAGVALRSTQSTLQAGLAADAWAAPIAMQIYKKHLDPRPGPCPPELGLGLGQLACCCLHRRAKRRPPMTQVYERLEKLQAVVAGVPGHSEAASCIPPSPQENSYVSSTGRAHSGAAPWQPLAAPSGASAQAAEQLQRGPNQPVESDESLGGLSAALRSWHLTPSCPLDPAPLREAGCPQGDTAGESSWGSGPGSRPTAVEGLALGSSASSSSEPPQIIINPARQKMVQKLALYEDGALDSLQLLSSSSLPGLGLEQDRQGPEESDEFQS
Dual specificity mitogen-activated protein kinase kinase 4, sequence (P45985 whole entry): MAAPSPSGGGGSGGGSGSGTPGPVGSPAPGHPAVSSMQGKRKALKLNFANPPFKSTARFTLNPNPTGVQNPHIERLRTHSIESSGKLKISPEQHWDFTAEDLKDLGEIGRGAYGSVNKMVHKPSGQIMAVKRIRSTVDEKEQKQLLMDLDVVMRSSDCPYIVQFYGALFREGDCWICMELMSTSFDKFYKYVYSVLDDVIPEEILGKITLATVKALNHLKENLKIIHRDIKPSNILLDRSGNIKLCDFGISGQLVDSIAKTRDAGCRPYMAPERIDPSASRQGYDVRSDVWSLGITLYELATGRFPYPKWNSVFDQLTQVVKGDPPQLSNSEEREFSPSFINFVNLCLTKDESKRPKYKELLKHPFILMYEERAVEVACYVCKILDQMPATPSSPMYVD
Inhibitor of nuclear factor kappa-B kinase subunit beta, sequence (O14920 whole entry): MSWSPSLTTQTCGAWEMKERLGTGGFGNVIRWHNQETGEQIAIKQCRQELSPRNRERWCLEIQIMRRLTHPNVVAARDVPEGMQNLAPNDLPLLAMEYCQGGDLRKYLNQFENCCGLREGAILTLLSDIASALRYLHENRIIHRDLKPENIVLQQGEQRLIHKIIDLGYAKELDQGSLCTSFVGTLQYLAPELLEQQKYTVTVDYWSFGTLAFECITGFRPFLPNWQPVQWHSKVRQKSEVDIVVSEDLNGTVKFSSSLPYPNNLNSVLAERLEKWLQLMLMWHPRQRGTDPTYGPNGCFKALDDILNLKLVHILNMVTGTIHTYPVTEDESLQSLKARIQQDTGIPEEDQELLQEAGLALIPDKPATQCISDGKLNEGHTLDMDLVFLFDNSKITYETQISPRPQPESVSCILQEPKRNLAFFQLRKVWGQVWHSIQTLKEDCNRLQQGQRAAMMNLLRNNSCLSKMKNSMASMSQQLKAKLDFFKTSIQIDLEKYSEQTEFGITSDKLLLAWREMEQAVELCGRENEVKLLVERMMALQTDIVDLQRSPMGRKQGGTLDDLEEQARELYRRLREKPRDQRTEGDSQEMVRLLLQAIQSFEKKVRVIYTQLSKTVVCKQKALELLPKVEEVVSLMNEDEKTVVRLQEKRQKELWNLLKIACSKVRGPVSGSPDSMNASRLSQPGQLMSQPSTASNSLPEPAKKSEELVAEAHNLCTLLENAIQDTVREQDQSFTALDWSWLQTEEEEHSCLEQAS

Regarding `CCn1c(=O)c2ccccc2n(-c2ccccc2)c1=O`, the IC50 in data set [1] was 11000 nM; in data set [2], more than 20000 nM.
In data set [3], `COC(=O)c1c(Cc2ccc(C(=O)NCCO)cc2)c(=O)c2ccc(C)nc2n1-c1ccccc1` yielded a solubility of 78 µg/mL (≈ 165 µM). Moreover, the IC50 was 30 nM in data set [1], 64 nM in data set [2] and 4200 nM in [4]. Moreover, the Ratio with Caco-2 was found to be 15.
Turning to `COC(=O)c1c(Cc2ccccc2)c(=O)c2ccc(Cl)cc2n1-c1ccccc1`, the IC50 worked out at 370 nM in [1] and 960 nM in data set [2].
On to `COC(=O)c1c(Cc2ccc(S(C)(=O)=O)cc2)c(=O)c2ccc(C(F)(F)F)nc2n1-c1ccccc1`, for which the IC50 in data set [1] was determined as 82 nM; in [2], 220 nM; in data set [4], 2700 nM.
Regarding `COC(=O)c1c(CN2CC[C@H](S(C)(=O)=O)C2)c(=O)c2ccc(F)cc2n1-c1ccccc1`, the half-inhibitory concentration (IC50) in data set [1] came to 53 nM; in [2], 535 nM.
As to `COC(=O)c1c(Cc2ccc(C(=O)NCCO)cc2)c(=O)c2ccc(Cl)cc2n1-c1ccccc1`, the Kd in [5], in data set [9], in data set [10], in [11], in data set [12] and in [13] was more than 10000 nM each time. The Kd in data set [15] was more than 10000 nM; in [16], more than 10000 nM; in [17] it was more than 10000 nM; in [18] it was 62 nM; in data set [20], more than 10000 nM; in data set [21], more than 10000 nM. Moreover, the Kd was more than 10000 nM in [22]; more than 10000 nM in data set [23]; more than 10000 nM in data set [24]; more than 10000 nM in data set [26]; more than 10000 nM in [31]; 170 nM in [32]. Moreover, the inhibition in vivo at 10 mg/kg in the data set on Rattus norvegicus [6] stood at 55%; with Rattus norvegicus [19], 40%. Moreover, the bioavailability stood at 40% in data set [7], 6% in data set [14], 43% in data set [29] and 100% in [30]. The half-life in [8] is 2.5 h; in data set [25], 1 h. In addition, in [3], the concentration in solution (solubility) came to 8.5 µg/mL (≈ 17.3 µM). The IC50 in data set [1] is 62 nM; in [2], 170 nM; in data set [4], 3000 nM. For the same compound, the Ratio in the data set on Caco-2 turned out to be 7. For the same compound, the clearance in [27] came out at 3.4 mL/min/kg; in data set [28], 25 mL/min/kg.
With `COC(=O)c1c(CN2CCN(S(C)(=O)=O)CC2)c(=O)c2ccc(F)cc2n1-c1ccccc1`, the values for the IC50 in data set [1] and in data set [2] were 65 nM and 507 nM, respectively.
As for `COC(=O)c1c(Cc2ccc(S(=O)(=O)N3CCNCC3)cc2)c(=O)c2ccc(F)cc2n1-c1ccccc1`, in data set [3], the solubility was found to be 37 µg/mL (≈ 69.1 µM). In addition, the IC50 in data set [1] worked out at 30 nM; in data set [2] it was 70 nM; in data set [4], 1700 nM.
Turning to `COC(=O)c1c(Cc2ccc(S(C)(=O)=O)cc2)c(=O)c2ccc(C)nc2n1-c1cccc(N)c1`, the IC50 turned out to be 14 nM in data set [1], 32 nM in data set [2] and 860 nM in data set [4].
With `COC(=O)c1c(CN2CCC(S(C)(=O)=O)CC2)c(=O)c2ccc(C(F)(F)F)nc2n1-c1ccccc1`, the values for the IC50 in [2] and in [4] were 290 nM and 4300 nM, respectively.
For the compound `COC(=O)c1c(Cc2ccc(C(=O)NCCO)cc2)c(=O)c2ccc(C(F)(F)F)nc2n1-c1ccccc1`, the IC50 in data set [1] worked out at 80 nM; in data set [2], 176 nM; in [4] it was 4300 nM.
On to `O=c1c2ccccc2n(-c2ccccc2)c(=O)n1Cc1ccccc1`, for which the IC50 amounted to 2800 nM in data set [1] and 9300 nM in data set [2].
For `CCNC(=O)c1ccc(Cc2c(C(=O)OC)n(-c3ccccc3)c3cc(Cl)ccc3c2=O)cc1` the same measures were 38 nM and 94 nM.
On the same counts, the results for `COC(=O)c1c(CN2CCOCC2)c(=O)c2ccc(F)cc2n1-c1ccccc1` are 114 nM and 900 nM.
As for `COC(=O)c1c(CN2CC[C@@H](S(C)(=O)=O)C2)c(=O)c2ccc(F)cc2n1-c1ccccc1`, the IC50 was determined as 130 nM in [1] and 1310 nM in data set [2].
The compound `COC(=O)c1c(CN2CCC(S(C)(=O)=O)CC2)c(=O)c2ccc(F)cc2n1-c1ccccc1` displayed a solubility in [3] of 34 µg/mL (≈ 72 µM). Further, the figures for the IC50 in data set [1], in [2] and in data set [4] were 23 nM, 140 nM and 830 nM, respectively. Further, the Ratio in the data set on Caco-2 stood at 2.
Take `COC(=O)c1c(Cc2ccc(S(=O)(=O)CCO)cc2)c(=O)c2ccc(F)cc2n1-c1ccccc1`: the IC50 in data set [1] was found to be 58 nM; in [2], 219 nM; in data set [4] it was 2500 nM.
For `O=c1c2ccc(Cl)cc2n(-c2ccccc2)c(=O)n1Cc1ccccc1`, the results for the IC50 in data set [1] and in data set [2] were 2300 nM and 3800 nM, respectively.
As to `COC(=O)c1c(CN2CCC(S(C)(=O)=O)CC2)c(=O)c2ccc(C)nc2n1-c1ccccc1`, the IC50 turned out to be 190 nM in data set [2] and 430 nM in data set [4].
In turn, `CNS(=O)(=O)c1ccc(Cc2c(C(=O)OC)n(-c3ccccc3)c3cc(Cl)ccc3c2=O)cc1` returned an IC50 in data set [1] of 47 nM.
As for `COC(=O)c1c(Cc2ccc(S(=O)(=O)N3CCNCC3)cc2)c(=O)c2ccc(C)nc2n1-c1ccccc1`, the IC50 in data set [1] came to 18 nM; in data set [2], 28 nM; in data set [4], 560 nM.
`COC(=O)c1c(Cc2ccc(S(=O)(=O)N3CCNCC3)cc2)c(=O)c2ccc(Cl)cc2n1-c1ccccc1` returned a solubility in data set [3] of 23 µg/mL (≈ 41.7 µM). The IC50 in [1] was found to be 30 nM; in data set [2], 50 nM; in data set [4], 1000 nM. Also, in the data set on Caco-2, the Ratio was determined as 2.
On to `CCNC(=O)c1ccc(Cc2c(C(=O)OC)n(-c3ccccc3)c3nc(C)ccc3c2=O)cc1`, for which the IC50 in data set [1] amounted to 45 nM; in data set [2], 87 nM; in data set [4], 4700 nM.

The term IC50 denotes the concentration that inhibits the measured activity by half. A word on the solubility: it is how much of the substance goes into solution per volume. A low value points to little dissolved substance. Broadly, the Kd is the equilibrium constant for the complex coming apart. The low end stands for a tighter complex, the high end for a looser complex. As usually defined, the inhibition in vivo is the share of the control response that was lost under treatment. What is called bioavailability is dose-corrected exposure relative to a reference, in per cent. Low values mean little systemic uptake, high ones much systemic uptake. For orientation: half-life means how long it takes for the measured level to halve. High values mean slow decline, low ones rapid decline. A word on the clearance: it is the rate of elimination divided by the concentration.
